Reference: patent US7132417B2, “2-phenyl-1-[4-(2-aminoethoxy)-benzyl]-indoles as estrogenic agents” (Wyeth, priority 1996, dated 2006)
pIC50: −log10 of the molar value. Counter-ions that a name gives are not always drawn.

Experiments:
estrogen receptor [1] = target: T1, estrogen receptor (Homo sapiens, UniProt P03372); assay: 2X VIT ERE infection (luciferase) assay; format: cell-based; set-up: expressed in transfected cells; host or cells: Chinese Hamster Ovary cells (CHO), stably transfected; conditions: for Infection Luciferase Activity 1 uM + 17β estradiol: 1 uM compound + 1 nM 17β-estradiol (test for estrogen antagonism); for Infection Luciferase Activity 1 uM: 1 uM compound, percentage of activity as compared to 17β-estradiol
T1 sequence (P03372 1-595): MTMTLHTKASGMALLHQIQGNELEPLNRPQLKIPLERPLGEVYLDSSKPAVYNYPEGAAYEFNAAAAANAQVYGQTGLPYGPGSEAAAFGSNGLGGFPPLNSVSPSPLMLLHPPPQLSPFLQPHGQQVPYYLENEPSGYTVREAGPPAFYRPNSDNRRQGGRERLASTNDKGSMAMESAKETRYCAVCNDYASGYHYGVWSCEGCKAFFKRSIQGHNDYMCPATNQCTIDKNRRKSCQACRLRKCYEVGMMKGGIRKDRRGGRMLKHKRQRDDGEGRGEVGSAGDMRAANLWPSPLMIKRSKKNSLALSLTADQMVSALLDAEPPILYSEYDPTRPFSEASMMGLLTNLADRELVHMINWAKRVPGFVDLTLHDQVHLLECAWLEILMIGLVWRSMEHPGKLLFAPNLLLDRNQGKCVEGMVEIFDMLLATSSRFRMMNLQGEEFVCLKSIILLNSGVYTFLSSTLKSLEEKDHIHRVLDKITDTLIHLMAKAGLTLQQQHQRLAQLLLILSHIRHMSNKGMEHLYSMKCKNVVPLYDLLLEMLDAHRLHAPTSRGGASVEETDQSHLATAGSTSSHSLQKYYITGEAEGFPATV
Protocol: Method No. 18 2X VIT ERE Infection Assay Cell Maintenance and Treatment
Chinese Hamster Ovary cells (CHO) which had been stably transfected with the human estrogen receptor were maintained in DMEM+10% fetal bovine serum (FBS). 48 h prior to treatment the growth medium was replaced with DMEM lacking phenol red +10% dextran coated charcoal stripped FBS (treatment medium). Cells were plated at a density of 5000 cells/well in 96-well plates containing 200 µL of medium/well.
Reporter DNA (Promega plasmid pGL2 containing two tandem copies of the vitellogenin ERE in front of the minimal thymidine kinase promoter driving the luciferase gene) was combined with the B-galactosidase expression plasmid pCH110 (Pharmacia) and carrier DNA (pTZ18U) in the following ratio:
20 uL of this mixture was added to each well of cells and remained on the cells for 16 h. […] Each treatment condition was performed on 8 wells (n=8) which were incubated for 24 h prior to the luciferase assay.
After removing the PBS, 25 uL of Promega lysis buffer was added to each well and allowed to stand at room temperature for 15 min, followed by 15 min at −80° C. and 15 min at 37° C. 20 uL of lysate was transferred to an opaque 96 well plate for luciferase activity evaluation and the remaining lysate (5 uL) was used for the B-galactosidase activity evaluation (normalize transfection). The luciferan substrate (Promega) was added in 100 uL aliquots to each well automatically by the luminometer and the light produced (relative light units) was read 10 seconds after addition.
To the remaining 5 uL of lysate 45 uL of PBS was added. Then 50 uL of Promega B-galactosidase 2× assay buffer was added, mixed well and incubated at 37° C. for 1 hour. A plate containing a standard curve (0.1 to 1.5 milliunits in triplicate) was set up for each experimental run. The plates were analyzed on a Molecular Devices spectrophotometric plate reader at 410 nm. The optical densities for the unknown were converted to milliunits of activity by mathematical extrapolation from the standard curve.
The luciferase data was generated as relative light units (RLUs) accumulated during a 10 second measurement and automatically transferred to a JMP (SAS Inc) file where background RLUs were subtracted. The B-galactosidase values were automatically imported into the file and these values were divided into the RLUs to normalize the data. The mean and standard deviations were determined from a n=8 for each treatment. […] These techniques are described by Tzukerman, M. T., Esty, A., Santiso-Mere, D., Danielian, P., Parker, M. G., Stein, R. B., Pike, J. W. and McDonnel, D. P. (1994).

estrogen receptor [2] = target: T1, estrogen receptor; assay: In vitro estrogen receptor binding assay ([3H]-17β-estradiol competition); set-up: expressed in transfected cells; host or cells: CHO cells (100,000 g cytosol); conditions: read-out: Receptor Binding IC50's
Protocol: In Vitro Estrogen Receptor Binding Assay
CHO cells overexpressing the estrogen receptor were grown in 150 mm^2 dishes in DMEM+10% dextran coated charcoal, stripped fetal bovine serum. The plates were washed twice with PBS and once with 10 mM Tris-HCl, pH 7.4, 1 mM EDTA. Cells were harvested by scraping the surface and then the cell suspension was placed on ice. Cells were disrupted with a hand-held motorized tissue grinder using two, 10-second bursts. […] The cytosol was then frozen and stored at −80° C. Protein concentration of the cytosol was estimated using the BCA assay with reference standard protein.
100 uG/100 uL of the receptor preparation was aliquoted per well. […] The plate was incubated at room temperature for 2.5 h. […] 200 uL of the supernatant solution was then removed for scintillation counting. Samples were counted to 2% or 10 minutes, whichever occurs first. […] Also, wells containing radioactivity but no cytosol were processed with charcoal to estimate unremovable DPM of [^3H]
Counts per minute (CPM) of radioactivity were automatically converted to disintegrated per minute (DPM) by the Beckman LS 7500 Scintillation Counter using a set of quenched standards to generate a H No. for each sample.
For the generation of IC50 curves, % binding is plotted vs compound. […] For a description of these methods, see Hulme, E. C., ed. […] Receptor-Ligand Interactions: A Practical Approach. IRL Press, New York. (see especially chapter 8).

SMILES | Infection Luciferase Activity 1 uM + 17β estradiol (estrogen receptor [1]) [%] | Infection Luciferase Activity 1 uM (estrogen receptor [1]) [%] | pIC50 (estrogen receptor [2])
Cc1c(-c2ccc(O)cc2)n(Cc2ccc(OCCN3CCCCC3)cc2)c2ccccc12 [compound 86, 4-{3-Methyl-1-[4-(2-piperidin-1-yl-ethoxy)-benzyl]-1H-indol-2-yl}-phenol hydrochloride] | 2 | −5 | 
CCOc1ccc(-c2c(C)c3cc(O)ccc3n2Cc2ccc(OCCN3CCCCCC3)cc2)cc1 [compound 93, 1-[4-(2-Azepan-1-yl-ethoxy)-benzyl]-2-(4-ethoxy-phenyl)-3-methyl-1H-indol-5-ol] | −2 | −3 | 
CCOc1ccc(-c2c(C)c3cc(O)ccc3n2Cc2ccc(OCCN3CCCCC3)cc2)cc1 [compound 92, 2-(4-Ethoxy-phenyl)-3-methyl-1-[4-(2-piperidin-1-yl-ethoxy)-benzyl]-1H-indol-5-ol] | −2 | −4 | 
COc1ccc(-c2c(C)c3cc(OC)ccc3n2Cc2ccc(OCCN3CCCCC3)cc2)cc1 [compound 90, 5-Methoxy-2-(4-methoxy-phenyl)-3-methyl-1-[4-(2-piperidin-1-yl-ethoxy)-benzyl]-1H-indole] | 58 | 3 | 
Cc1c(-c2ccc(F)cc2)n(Cc2ccc(OCCN3CCCCC3)cc2)c2ccc(O)cc12 [compound 116, 2-(4-Fluoro-phenyl)-3-methyl-1-[4-(2-piperidine-1-yl-ethoxy)-benzyl]-1H-indol-5-ol] | 1 | −1 | 
Cc1c(-c2ccc(O)c(F)c2)n(Cc2ccc(OCCN3CCCCC3)cc2)c2ccc(O)cc12 [compound 129, 2-(3-Fluoro-4-hydroxy-phenyl)-3-methyl-1-[4-(2-piperidin-1-yl-ethoxy)-benzyl]-1H-indol-5-ol] |  |  | 8.26
CCCCN(C)CCOc1ccc(Cn2c(-c3ccc(O)cc3)c(C)c3cc(O)ccc32)cc1 [compound 105, 1-{4-[2-(Butyl-methyl-amino)-ethoxy]-benzyl}-2-(4-hydroxy-phenyl)-3-methyl-1H-indol-5-ol] |  |  | 7.55
Cc1c(-c2ccc(F)cc2)n(Cc2ccc(OCCN3CCCCCC3)cc2)c2ccc(O)cc12 [compound 117, 1-[4-(2-Azepan-1-yl-ethoxy)-benzyl]-2-(4-fluoro-phenyl)-3-methyl-1H-indol-5-ol] | 1 | 0 | 
Cc1c(-c2ccc3c(c2)OCO3)n(Cc2ccc(OCCN3CCCCC3)cc2)c2ccc(O)cc12 [compound 119, 2-Benzo[1,3]dioxol-5-yl-3-methyl-1-[4-(2-piperidin-1-yl-ethoxy)-benzyl]-1H-indol-5-ol] | −1 | −1 | 
Cc1c(-c2ccc(O)cc2)n(Cc2ccc(OCCN3CCCC3)cc2)c2ccc(O)cc12 [compound 96, 2-(4-Hydroxy-phenyl)-3-methyl-1-[4-(2-pyrollidin-1-yl-ethoxy)-benzyl]-1H-indol-5-ol] | 8 | 12 | 
COc1ccc(-c2c(C)c3cc(O)ccc3n2Cc2ccc(OCCN3CCCCC3)cc2)c(OC)c1 [compound 126, 2-(2,4-Dimethoxy-phenyl)-3-methyl-1-[4-(2-piperidin-1-yl-ethoxy)-benzyl]-1H-indol-5-ol] | 0 | −1 | 
Oc1ccc(-c2c(Cl)c3cc(O)ccc3n2Cc2ccc(OCCN3CCCC3)cc2)cc1 [compound 133, 3-Chloro-2-(4-hydroxy-phenyl)-1-[4-(2-pyrrolidin-1-yl-ethoxy)-benzyl]-1H-indol-5-ol] |  |  | 8.40
Cc1c(-c2ccc(C(F)(F)F)cc2)n(Cc2ccc(OCCN3CCCCC3)cc2)c2ccc(O)cc12 [compound 123, 3-Methyl-1-[4-(2-piperidin-1-yl-ethoxy)-benzyl]-2-(4-trifluoromethyl-phenyl)-1H-indol-5-ol] |  |  | 6.77
COc1ccc(-c2c(C)c3cc(O)ccc3n2Cc2ccc(OCCN3CCCCC3)cc2)cc1 [compound 89, 2-(4-methoxy-phenyl)-3-methyl-1-{4-[2-(piperidin-1-yl)-ethoxy]-benzyl}-1H-indol-5-ol] | 18 | 16 | 
Cc1c(-c2ccc(O)cc2)n(Cc2ccc(OCCCN3CCCCC3)cc2)c2ccc(O)cc12 [Example No. 166, 2-(4-Hydroxy-phenyl)-3-methyl-1-{4-[3-(piperidin-1-yl)-propoxy]-benzyl}-1H-indol-5-ol] |  |  | 7.00
N#Cc1c(-c2ccc(O)cc2)n(Cc2ccc(OCCN3CCCCC3)cc2)c2ccc(O)cc12 [compound 138, 5-Hydroxy-2-(4-Hydroxy-phenyl)-1-[4-(2-piperidin-1-yl-ethoxy)-benzyl]-1H-indole-3-carbonitrile] |  |  | 7.96
Cc1c(-c2cccc(O)c2)n(Cc2ccc(OCCN3CCCCC3)cc2)c2ccc(O)cc12 [compound 127, 2-(3-Hydroxy-phenyl)-3-methyl-1-[4-(2-piperidin-1-yl-ethoxy)-benzyl]-1H-indol-5-ol] |  |  | 7.72
Cc1c(-c2ccc(O)c(F)c2)n(Cc2ccc(OCCN3CCCCCC3)cc2)c2ccc(O)cc12 [compound 130, 2-(3-Fluoro-4-hydroxy-phenyl)-3-methyl-1-[4-(azepan-1-yl-ethoxy)-benzyl]-1H-indol-5-ol] |  |  | 7.89
COc1ccc2c(c1)c(C)c(-c1ccc(O)cc1)n2Cc1ccc(OCCN2CCCCC2)cc1 [compound 88, 4-{5-Methoxy-3-methyl-1-{4-[2-(piperidin-1-yl)-ethoxy]-benzyl}-1H-indol-2-yl}-phenol] | 44 | 4 | 
Cc1c(-c2ccc(O)cc2)n(Cc2ccc(OCCN3CCCCC3)cc2)c2ccc(F)cc12 [compound 94, 4-{5-Fluoro-3-methyl-1-[4-(2-piperidin-1-yl-ethoxy)-benzyl]-1H-indol-2-yl}-phenol] | 15 | −5 | 
CCc1c(-c2ccc(O)cc2)n(Cc2ccc(OCCN3CCCCC3)cc2)c2ccc(O)cc12 [compound 137, 2-(4-Hydroxy-phenyl)-3-ethyl-1-[4-(2-piperidin-1-yl-ethoxy)-benzyl]-1H-indol-5-ol] |  |  | 6.82
